The record followed here is patent publication US20250368678A1, “19-NOR-C3,3-DISUBSTITUTED C21-AZACYCLO-S[…] AND METHOD FOR USING SAME” (SHANDONG LUYE PHARMACEUTICAL CO., LTD., priority 2022, published 2025).

In the first data set the target is T1, α1β2γ2 GABA receptors (α1β2γ2-CHO-TRex stable cell strain) (Homo sapiens, UniProt P14867+P47870).
T1 construct: expressed in transfected cells
T1 sequence (P14867 28-456): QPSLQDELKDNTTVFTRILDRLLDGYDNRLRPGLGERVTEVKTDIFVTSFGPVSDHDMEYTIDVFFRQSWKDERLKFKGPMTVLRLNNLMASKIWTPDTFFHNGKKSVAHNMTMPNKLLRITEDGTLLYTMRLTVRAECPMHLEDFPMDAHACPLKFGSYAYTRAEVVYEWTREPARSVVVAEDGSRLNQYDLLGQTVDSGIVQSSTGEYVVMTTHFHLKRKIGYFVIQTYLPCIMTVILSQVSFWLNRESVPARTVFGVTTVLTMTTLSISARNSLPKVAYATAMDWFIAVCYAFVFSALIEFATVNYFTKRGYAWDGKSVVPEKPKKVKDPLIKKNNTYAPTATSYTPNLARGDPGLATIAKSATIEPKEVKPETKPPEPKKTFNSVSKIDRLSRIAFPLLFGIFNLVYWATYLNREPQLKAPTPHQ
T1 sequence (P47870 25-512 limits assumed): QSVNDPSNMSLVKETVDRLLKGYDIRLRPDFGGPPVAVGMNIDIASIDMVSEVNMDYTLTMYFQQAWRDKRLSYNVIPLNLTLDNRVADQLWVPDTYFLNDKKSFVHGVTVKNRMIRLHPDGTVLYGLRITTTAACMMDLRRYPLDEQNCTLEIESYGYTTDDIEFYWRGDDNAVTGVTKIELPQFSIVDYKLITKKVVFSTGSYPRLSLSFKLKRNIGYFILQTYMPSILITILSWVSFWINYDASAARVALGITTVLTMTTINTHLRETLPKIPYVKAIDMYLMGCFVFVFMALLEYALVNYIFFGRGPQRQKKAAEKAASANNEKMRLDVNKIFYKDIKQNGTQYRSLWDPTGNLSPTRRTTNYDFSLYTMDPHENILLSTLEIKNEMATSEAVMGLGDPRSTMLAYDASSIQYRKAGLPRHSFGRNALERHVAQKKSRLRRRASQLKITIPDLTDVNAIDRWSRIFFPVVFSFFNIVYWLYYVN
T1 sequence (P18507 40-475 partner): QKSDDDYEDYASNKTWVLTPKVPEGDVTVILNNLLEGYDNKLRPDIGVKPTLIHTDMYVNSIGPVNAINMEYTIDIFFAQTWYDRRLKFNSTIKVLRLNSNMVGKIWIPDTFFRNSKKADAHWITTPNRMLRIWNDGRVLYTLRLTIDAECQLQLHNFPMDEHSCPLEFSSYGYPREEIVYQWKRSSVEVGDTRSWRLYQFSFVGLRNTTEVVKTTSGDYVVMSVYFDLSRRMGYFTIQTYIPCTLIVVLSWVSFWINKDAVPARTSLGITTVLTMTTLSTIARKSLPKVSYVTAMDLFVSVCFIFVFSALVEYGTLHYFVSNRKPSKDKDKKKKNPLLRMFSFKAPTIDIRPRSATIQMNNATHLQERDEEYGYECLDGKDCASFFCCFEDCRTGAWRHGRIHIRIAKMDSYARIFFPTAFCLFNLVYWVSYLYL
The experiment in a line: Whole-cell patch clamp, intrasynaptic functional activity (positive allosteric regulation of GABA-induced current). Format: cell-based. The conditions noted are these: patch clamp -60 mV, GABA at EC10-20, α1β2γ2-CHO-TRex cells. The protocol:
(§1) The α4β3δ-HEK-FlpIn-TRex stable cell strain was cultured in DMEM+10% FBS complete culture medium, with the selective antibiotics being 10 μg/mL Blasticidin, 100 µg/mL Zeocin, 100 µg/mL Hygromycin, and 0.2 μg/mL Puromycin. The α1β2γ2-CHO-TRex stable cell strain was cultured in DMEM/F12+10% FBS complete culture medium, with the selective antibiotics being 10 μg/mL Blasticidin, 100 μg/mL Zeocin, 300 μg/mL Hygromycin, and […] Puromycin.
(§2) The day before the patch clamp experiment, cells were seeded onto 12 mm polylysine-coated coverslips and then cultured in 35 mm culture dishes, and tetracycline ([…]) was added to induce the expression of GABA receptors. The extracellular fluid had the following composition (in mM): 140 NaCl, 3 KCl, 1.5 MgCl2, 2 CaCl2, 10 HEPES, and 10 Glucose. After thorough mixing, NaOH was added to adjust the pH to 7.4, and sucrose was added to adjust the osmotic pressure to 300-320 mOsm. The fluid was stored at 4° C. The electrode internal solution had the following composition (in mM): 145 KCl, 1 MgCl2, 5 EGTA, 10 HEPES, and 5 MgATP. After thorough mixing, KOH was added to adjust the pH to 7.3, and sucrose was added to adjust the osmotic pressure to 290-300 mOsm. The solution was filtered through a […] before use.
(§3) Whole-cell patch clamp recording was mainly employed in this experiment. The membrane potential was clamped at −60 mV, and receptors were activated using GABA at an EC10-20 concentration ([…]). The test compounds were dissolved in 0.1% DMSO, and perfusion was performed for 30 s prior to GABA stimulation. Finally, the positive allosteric regulating effects of the test compounds on α1β2γ2 or α4β3δ were determined.
(§4) The experimental result for each concentration was expressed as a fold increase in the GABA-induced current caused by the compound. […] At least 5 concentrations are tested to obtain a complete EC50 curve and EC50 values. All experiments were repeated on no less than 3 cells, and data processing was completed using GraphPad prism software. The dose-response curves were fitted using the Hill equation, and the half-maximal activating concentration EC50 and Emax were finally obtained.
(In general: The patch-clamp technique gives a direct electrical read-out from membranes.)
In general, EC50 refers to the concentration at which the effect is half-maximal. What is called Emax is the maximal effect, on the per cent scale that the assay sets. `C[C@@]1(O)CC[C@H]2[C@H](CC[C@@H]3[C@@H]2CC[C@]2(C)[C@@H](C(=O)Cn4cnn(-c5cccc(N)c5)c4=O)CC[C@@H]32)C1` [Compound 22] had an EC50 of 349 nM and an Emax of 786%.

`C[C@@]1(O)CC[C@H]2[C@H](CC[C@@H]3[C@@H]2CC[C@]2(C)[C@@H](C(=O)Cn4cnn(-c5cncc(F)c5)c4=O)CC[C@@H]32)C1` [Compound 23] had an EC50 of 145 nM and an Emax of 618%.

`C[C@@]1(O)CC[C@H]2[C@H](CC[C@@H]3[C@@H]2CC[C@]2(C)[C@@H](C(=O)Cn4cnn(-c5cc(F)ccc5F)c4=O)CC[C@@H]32)C1` [Compound 24] yielded an EC50 of 340 nM and an Emax of 347%.

The target of a further data set is T2, α4β3δ GABA receptors (α4β3δ-HEK-FlpIn-TRex stable cell strain) (Homo sapiens, UniProt P28472+P48169).
T2 construct: expressed in transfected cells
T2 sequence (P48169 36-554): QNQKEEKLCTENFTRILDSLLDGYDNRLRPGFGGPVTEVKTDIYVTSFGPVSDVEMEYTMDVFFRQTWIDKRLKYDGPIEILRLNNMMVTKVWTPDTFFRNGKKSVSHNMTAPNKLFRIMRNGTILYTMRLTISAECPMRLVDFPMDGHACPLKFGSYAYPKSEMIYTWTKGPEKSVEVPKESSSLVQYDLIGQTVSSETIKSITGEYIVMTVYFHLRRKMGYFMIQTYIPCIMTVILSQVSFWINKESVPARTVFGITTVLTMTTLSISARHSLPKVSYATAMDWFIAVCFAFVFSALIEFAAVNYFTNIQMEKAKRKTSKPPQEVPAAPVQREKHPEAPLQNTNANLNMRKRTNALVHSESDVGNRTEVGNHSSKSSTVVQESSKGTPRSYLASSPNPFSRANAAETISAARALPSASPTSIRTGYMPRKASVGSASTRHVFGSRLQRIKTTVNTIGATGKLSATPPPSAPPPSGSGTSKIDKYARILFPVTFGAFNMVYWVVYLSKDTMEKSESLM
T2 sequence (P28472 26-473): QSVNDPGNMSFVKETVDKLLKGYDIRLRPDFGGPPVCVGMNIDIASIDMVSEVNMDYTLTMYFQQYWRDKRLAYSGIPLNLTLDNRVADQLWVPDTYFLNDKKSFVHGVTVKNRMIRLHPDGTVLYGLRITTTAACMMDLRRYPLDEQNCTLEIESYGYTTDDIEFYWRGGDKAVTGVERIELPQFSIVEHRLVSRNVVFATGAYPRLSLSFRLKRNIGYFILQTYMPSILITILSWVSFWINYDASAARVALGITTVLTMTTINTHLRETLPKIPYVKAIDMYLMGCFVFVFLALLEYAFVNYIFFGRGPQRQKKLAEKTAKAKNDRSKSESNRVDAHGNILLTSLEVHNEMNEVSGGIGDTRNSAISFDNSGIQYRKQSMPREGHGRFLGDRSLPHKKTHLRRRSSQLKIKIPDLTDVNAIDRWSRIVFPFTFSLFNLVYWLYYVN
T2 sequence (O14764 25-452 partner): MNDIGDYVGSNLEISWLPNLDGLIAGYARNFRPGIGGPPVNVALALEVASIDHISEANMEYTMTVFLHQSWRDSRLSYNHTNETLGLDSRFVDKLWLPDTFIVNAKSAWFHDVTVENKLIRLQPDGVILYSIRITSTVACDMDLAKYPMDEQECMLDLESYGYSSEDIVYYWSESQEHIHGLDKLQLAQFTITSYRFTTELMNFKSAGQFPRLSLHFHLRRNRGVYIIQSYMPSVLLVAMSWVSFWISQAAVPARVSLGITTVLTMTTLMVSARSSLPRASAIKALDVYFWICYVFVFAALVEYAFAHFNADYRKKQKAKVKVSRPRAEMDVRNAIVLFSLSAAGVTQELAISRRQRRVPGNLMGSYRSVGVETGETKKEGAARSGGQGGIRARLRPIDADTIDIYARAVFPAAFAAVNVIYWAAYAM
The experiment in a line: Whole-cell patch clamp, extrasynaptic functional activity (positive allosteric regulation of GABA-induced current). Format: cell-based. As to conditions: patch clamp -60 mV, GABA at EC10-20, α4β3δ-HEK-FlpIn-TRex cells. The protocol: as §1, §2, §3, §4
Turning to `C[C@@]1(O)CC[C@H]2[C@H](CC[C@@H]3[C@@H]2CC[C@]2(C)[C@@H](C(=O)Cn4cnn(-c5cccc(N)c5)c4=O)CC[C@@H]32)C1` [Compound 22], the EC50 came out at 213 nM.

As for `C[C@@]1(O)CC[C@H]2[C@H](CC[C@@H]3[C@@H]2CC[C@]2(C)[C@@H](C(=O)Cn4cnn(-c5cncc(F)c5)c4=O)CC[C@@H]32)C1` [Compound 23], the EC50 was 150 nM and the Emax is 601%.

Turning to `C[C@@]1(O)CC[C@H]2[C@H](CC[C@@H]3[C@@H]2CC[C@]2(C)[C@@H](C(=O)Cn4cnn(-c5cc(F)ccc5F)c4=O)CC[C@@H]32)C1` [Compound 24], a half-maximal effect (EC50) was put at 79 nM and the Emax worked out at 743%.

System in the next data set: not listed separately
Description: In vitro liver microsomal stability assay, human. The format is in vitro ADME. The conditions noted are these: Human liver microsomes. On the procedure: (§5) 1) Preparation of working solutions of test samples: The test samples were diluted with acetonitrile to 100 M.
(§6) 2) Preparation of a working solution of liver microsomes: liver microsomes were diluted with 100 mM phosphate-buffered saline to 0.56 mg/mL.
(§7) 3) Preparation of a working solution of reduced nicotinamide adenine dinucleotide (NADPH): A proper amount of NADPH was weighed out and diluted with phosphate-buffered saline to 20 mM, and an equal volume of a 60 mM MgCl2 solution was added.
(§8) 4) Preparation of a stop solution: Tolbutamide was diluted with acetonitrile to 20 ng/mL, serving as a stop solution containing an internal standard.
(§9) 1) Incubation anti-adsorption EP tubes were prepared and labeled with species, test/control sample, time points (0, 5, 10, 20, 30, 60 min, Blank60, and NCF60), etc.
(§10) 2) 2 L of test or control sample working solution, diluted with acetonitrile to 100 M, and 178 L of liver microsome working solution were added to each tube. For the Blank60 tube, 2 L of acetonitrile was added instead of a test sample. The tubes were pre-incubated in a 37° C. water bath for about 10 min, with each sample tested in triplicate.
(§11) 3) After the pre-incubation was complete, 20 L of NADPH working solution was added to each tube except for the 0 min and NCF60 tubes to start reactions, and 20 L of phosphate-buffered saline (containing 30 mM MgCl2) was added to the NCF60 tube. In the incubation system, the final concentrations of the test and control samples were 1 M, the final concentration of liver microsomes was 0.5 mg/mL, the final concentration of NADPH was 1 mM, and the final concentration of MgCl2 was 3 mM.
(§12) 4) For the 0 min sample, 600 L of stop solution was added before adding the NADPH working solution. After each sample was incubated for its respective time, 600 L of stop solution was added to stop the reaction.
(§13) 5) After the reaction was stopped, each sample was vortexed for 30 s and then centrifuged at 13,500 rpm for 10 min. 100 L of the supernatant was transferred to an EP tube, and 100 L Milli-Q water was added. The mixture was well mixed by vortexing and analyzed by LC-MS/MS.
(§14) 6) Testosterone and dextromethorphan were used as positive control samples under the same conditions to assess the stability and reliability of the system.
(§15) Parameters of the test samples, including their half-lives, intrinsic clearance rates in liver microsomes, and hepatic intrinsic clearance rates, were calculated based on the percentage of test sample remaining.
For orientation: CLint scaled means the rate of metabolic loss divided by the concentration. The low end stands for slow turnover, the high end for rapid turnover. In general, half-life refers to how long it takes for the measured level to halve. In turn, `C[C@@]1(O)CC[C@H]2[C@H](CC[C@@H]3[C@@H]2CC[C@]2(C)[C@@H](C(=O)Cn4cnn(-c5cccc(N)c5)c4=O)CC[C@@H]32)C1` [Compound 22] came in with a CLint scaled at 1 µM of 320 mL/min/kg and a half-life at 1 µM of 7.8 min.

`C[C@@]1(O)CC[C@H]2[C@H](CC[C@@H]3[C@@H]2CC[C@]2(C)[C@@H](C(=O)Cn4cnn(-c5cncc(F)c5)c4=O)CC[C@@H]32)C1` [Compound 23]: the CLint scaled at 1 µM came out at 21 mL/min/kg and the half-life at 1 µM was 60.3 min.

For `C[C@@]1(O)CC[C@H]2[C@H](CC[C@@H]3[C@@H]2CC[C@]2(C)[C@@H](C(=O)Cn4cnn(-c5cc(F)ccc5F)c4=O)CC[C@@H]32)C1` [Compound 24], the CLint scaled at 1 µM is 17 mL/min/kg and the half-life at 1 µM stood at 71.4 min.

Still in this data set, the particulars now being: Human liver microsomes 0.5 mg/mL, NADPH.
Regarding `C[C@@]1(O)CC[C@H]2[C@H](CC[C@@H]3[C@@H]2CC[C@]2(C)[C@@H](C(=O)Cn4cnn(-c5cccc(N)c5)c4=O)CC[C@@H]32)C1` [Compound 22], the “Remaining amount % at 60 min” value is 8.6%.

Regarding `C[C@@]1(O)CC[C@H]2[C@H](CC[C@@H]3[C@@H]2CC[C@]2(C)[C@@H](C(=O)Cn4cnn(-c5cncc(F)c5)c4=O)CC[C@@H]32)C1` [Compound 23], the “Remaining amount % at 60 min” value amounted to 53.4%.

Turning to `C[C@@]1(O)CC[C@H]2[C@H](CC[C@@H]3[C@@H]2CC[C@]2(C)[C@@H](C(=O)Cn4cnn(-c5cc(F)ccc5F)c4=O)CC[C@@H]32)C1` [Compound 24], the “Remaining amount % at 60 min” value was 56.1%.

The data set is the same for the next values; noted with them: Human liver microsomes; read-out: CLint(mic).
As for `C[C@@]1(O)CC[C@H]2[C@H](CC[C@@H]3[C@@H]2CC[C@]2(C)[C@@H](C(=O)Cn4cnn(-c5cccc(N)c5)c4=O)CC[C@@H]32)C1` [Compound 22], the microsomal CLint at 1 µM is 178 µL/min/mg.

In the case of `C[C@@]1(O)CC[C@H]2[C@H](CC[C@@H]3[C@@H]2CC[C@]2(C)[C@@H](C(=O)Cn4cnn(-c5cncc(F)c5)c4=O)CC[C@@H]32)C1` [Compound 23], the microsomal CLint at 1 µM came to 23 µL/min/mg.

Turning to `C[C@@]1(O)CC[C@H]2[C@H](CC[C@@H]3[C@@H]2CC[C@]2(C)[C@@H](C(=O)Cn4cnn(-c5cc(F)ccc5F)c4=O)CC[C@@H]32)C1` [Compound 24], the microsomal CLint at 1 µM worked out at 19 µL/min/mg.

System in another data set: not listed separately
Description: In vitro liver microsomal stability assay, rat. Format: in vitro ADME. As to conditions: Rat liver microsomes. The protocol:
as §5, §6, §7, §8, §9, §10, §11, §12, §13, §14, §15
For orientation: Microsomes from liver hold many membrane-bound enzymes, among them those of drug oxidation.
For `C[C@@]1(O)CC[C@H]2[C@H](CC[C@@H]3[C@@H]2CC[C@]2(C)[C@@H](C(=O)Cn4cnn(-c5cccc(N)c5)c4=O)CC[C@@H]32)C1` [Compound 22], the CLint scaled at 1 µM came out at 146 mL/min/kg and the half-life at 1 µM turned out to be 17.1 min.

`C[C@@]1(O)CC[C@H]2[C@H](CC[C@@H]3[C@@H]2CC[C@]2(C)[C@@H](C(=O)Cn4cnn(-c5cncc(F)c5)c4=O)CC[C@@H]32)C1` [Compound 23] registered a CLint scaled at 1 µM of 72 mL/min/kg and a half-life at 1 µM of 34.7 min.

The molecule `C[C@@]1(O)CC[C@H]2[C@H](CC[C@@H]3[C@@H]2CC[C@]2(C)[C@@H](C(=O)Cn4cnn(-c5cc(F)ccc5F)c4=O)CC[C@@H]32)C1` [Compound 24] showed a CLint scaled at 1 µM of 118 mL/min/kg and a half-life at 1 µM of 21.1 min.

Staying with this data set, now noted: Rat liver microsomes 0.5 mg/mL, NADPH.
As for `C[C@@]1(O)CC[C@H]2[C@H](CC[C@@H]3[C@@H]2CC[C@]2(C)[C@@H](C(=O)Cn4cnn(-c5cccc(N)c5)c4=O)CC[C@@H]32)C1` [Compound 22], the “Remaining amount % at 60 min” value was determined as 8.9%.

`C[C@@]1(O)CC[C@H]2[C@H](CC[C@@H]3[C@@H]2CC[C@]2(C)[C@@H](C(=O)Cn4cnn(-c5cncc(F)c5)c4=O)CC[C@@H]32)C1` [Compound 23]: the “Remaining amount % at 60 min” value is given as 31.7%.

Take `C[C@@]1(O)CC[C@H]2[C@H](CC[C@@H]3[C@@H]2CC[C@]2(C)[C@@H](C(=O)Cn4cnn(-c5cc(F)ccc5F)c4=O)CC[C@@H]32)C1` [Compound 24]: the “Remaining amount % at 60 min” value is on record as 14.7%.

Staying with this data set, now noted: Rat liver microsomes; read-out: CLint(mic).
Take `C[C@@]1(O)CC[C@H]2[C@H](CC[C@@H]3[C@@H]2CC[C@]2(C)[C@@H](C(=O)Cn4cnn(-c5cccc(N)c5)c4=O)CC[C@@H]32)C1` [Compound 22]: the microsomal CLint at 1 µM worked out at 81 µL/min/mg.

On to `C[C@@]1(O)CC[C@H]2[C@H](CC[C@@H]3[C@@H]2CC[C@]2(C)[C@@H](C(=O)Cn4cnn(-c5cncc(F)c5)c4=O)CC[C@@H]32)C1` [Compound 23], for which the microsomal CLint at 1 µM turned out to be 40 µL/min/mg.

In the case of `C[C@@]1(O)CC[C@H]2[C@H](CC[C@@H]3[C@@H]2CC[C@]2(C)[C@@H](C(=O)Cn4cnn(-c5cc(F)ccc5F)c4=O)CC[C@@H]32)C1` [Compound 24], the microsomal CLint at 1 µM was 66 µL/min/mg.
